The target in data set [1] is human arginine-vasopressin V1a receptors (Homo sapiens, UniProt P37288). Briefly: Affinity for human V1a receptors: displacement of [3H]-AVP. Conditions: for IC50: binding, displacement of [3H]-AVP; for selectivity for human AVP V1a receptors and for human AVP V1b receptors: versus V2 and/or oxytocin receptors. The data set is classed as binding. How it is done:
The affinity of the compounds of formula (I) according to the invention for arginine-vasopressin V1a receptors was determined in vitro using the method described by M. Thibonnier et al., J. Biol. Chem., 1994, 269, 3304-3310. This method consists in studying in vitro the displacement of tritiated arginine-vasopressin ([^3H]-AVP) at the V1a receptors present on membrane or cell preparations carrying rat or human V1a receptors.
(§1) The comparative pharmacological results of Compounds Nos. 17, 38, 46, 107 and 108 according to the invention with the compounds α and β of the prior art on the various in vitro tests measuring the affinity at human V1a, V1b, V2 and oxytocin receptors are illustrated in the following TABLE XV. The results are expressed by the 50% inhibitory concentration (IC50) expressed on a nanomolar basis (nM).
On the technique in general: Loss of bound radioactivity is the signal in a displacement assay; it reports binding, not function.

Data set [2] deals with T1, human V1b receptors (Homo sapiens, UniProt P47901).
T1 sequence (P47901 1-424): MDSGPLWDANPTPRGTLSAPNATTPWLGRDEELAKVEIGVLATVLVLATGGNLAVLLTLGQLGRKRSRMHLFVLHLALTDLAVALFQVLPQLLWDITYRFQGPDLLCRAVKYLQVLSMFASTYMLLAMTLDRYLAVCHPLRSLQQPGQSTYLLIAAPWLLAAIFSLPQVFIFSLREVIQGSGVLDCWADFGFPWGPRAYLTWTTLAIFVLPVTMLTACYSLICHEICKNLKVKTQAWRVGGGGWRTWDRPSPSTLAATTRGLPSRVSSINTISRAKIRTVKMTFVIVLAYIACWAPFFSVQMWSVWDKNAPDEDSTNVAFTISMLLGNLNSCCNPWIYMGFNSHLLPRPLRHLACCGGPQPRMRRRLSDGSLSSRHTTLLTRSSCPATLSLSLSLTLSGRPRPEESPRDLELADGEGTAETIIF
Briefly: Affinity for human V1b receptors: displacement of [3H]-AVP. The conditions noted are these: binding. How it is done:
The affinity of the compounds of formula (I) according to the invention for arginine-vasopressin V1b receptors was determined in vitro using the method described by Y. de Keyser et al. in Febs Letters, 1994, 356, 215-220. This method consists in studying in vitro the displacement of tritiated arginine-vasopressin ([^3H]-AVP) at the V1b receptors present on cell preparations carrying human V1b receptors.
as §1

Data set [3] deals with human V2 receptors (Homo sapiens, UniProt P30518). Briefly: Affinity for vasopressin V2 receptors. Type of data set: binding. The conditions noted are these: for IC50: binding.
Sequence of human V2 receptors (P30518 whole entry): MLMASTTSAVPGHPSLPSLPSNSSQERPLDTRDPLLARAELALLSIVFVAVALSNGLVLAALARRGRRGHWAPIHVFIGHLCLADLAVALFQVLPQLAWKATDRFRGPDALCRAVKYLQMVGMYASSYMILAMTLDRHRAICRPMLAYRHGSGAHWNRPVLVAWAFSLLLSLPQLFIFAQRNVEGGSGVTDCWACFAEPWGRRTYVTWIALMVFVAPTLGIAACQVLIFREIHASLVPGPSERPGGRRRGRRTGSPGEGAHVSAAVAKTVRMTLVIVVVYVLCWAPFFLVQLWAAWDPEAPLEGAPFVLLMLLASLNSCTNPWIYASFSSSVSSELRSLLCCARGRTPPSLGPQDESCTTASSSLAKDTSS
Excerpt: The affinity of the compounds of formula (I) according to the invention for vasopressin V2 receptors was also studied (method described by M. Birnbaumer et al. in Nature (Lond.), 1992, 357, 333-335).
as §1

The target in data set [4] is T2, human uterine oxytocin receptor (Homo sapiens, UniProt P30559).
T2 construct: expressed in transfected cells
T2 sequence (P30559 1-389): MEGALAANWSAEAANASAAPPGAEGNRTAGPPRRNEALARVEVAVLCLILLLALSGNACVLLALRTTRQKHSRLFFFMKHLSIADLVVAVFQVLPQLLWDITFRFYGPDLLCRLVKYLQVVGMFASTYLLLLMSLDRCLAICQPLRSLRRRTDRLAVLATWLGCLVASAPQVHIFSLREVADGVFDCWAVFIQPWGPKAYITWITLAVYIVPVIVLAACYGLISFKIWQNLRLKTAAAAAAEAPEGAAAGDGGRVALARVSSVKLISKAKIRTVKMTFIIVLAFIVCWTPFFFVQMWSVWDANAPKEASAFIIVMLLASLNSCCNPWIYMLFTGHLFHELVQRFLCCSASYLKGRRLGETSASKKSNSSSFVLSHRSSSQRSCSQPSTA
Description: Affinity for oxytocin receptors: displacement of a radioiodinated oxytocin analog. The data set is classed as binding. The conditions noted are these: for IC50: binding, radioiodinated oxytocin analog. How it is done: The affinity of the compounds according to the invention for oxytocin receptors was determined in an in vitro binding test using the method described by J. Elands et al. in Eur. J. Pharmacol., 1987, 147, 197-207. This method consists in studying in vitro the displacement of a radioiodinated oxytocin analog at the oxytocin receptors in a cell membrane preparation transfected with the human uterine oxytocin receptor.
as §1

For data set [5], the target named is human V1a receptors (Homo sapiens, UniProt P37288). Briefly: Measurement of intracellular calcium (FLIPR) on cells expressing human V1a receptors. The conditions noted are these: blocking the pharmacological effects brought about by arginine-vasopressin (FLIPR and platelet aggregation tests). Type of data set: cell-based. As for the experimental part:
The agonist or antagonist nature of the compounds is determined in vitro in a test for the measurement of intracellular calcium (FLIPR) on cells expressing human V1a receptors according to the general technique described in Sullivan et al., Methods Mol. Biol., 1999, 114, 125-133, using 1 μM of Fluo4 AM, and in a test for platelet aggregation induced with AVP on human PRP (platelet-rich plasma) according to the methodology described in J. Clin. Invest., 1993, 92, 224-231. The compounds are preincubated 30 minutes before the addition of the arginine-vasopressin in order to determine the agonist and antagonist properties of these molecules.
In general terms: Calcium flux is commonly read through the fluorescence of an indicator in the cells.

We go through eight compounds from US8362067B2, “3-aminoalkyl-1,3-dihydro-2H-indol-2-one derivatives, preparation thereof and therapeutic use thereof” (Sanofi, priority 2008, dated 2013).

Sequence of human arginine-vasopressin V1a receptors (P37288 whole entry): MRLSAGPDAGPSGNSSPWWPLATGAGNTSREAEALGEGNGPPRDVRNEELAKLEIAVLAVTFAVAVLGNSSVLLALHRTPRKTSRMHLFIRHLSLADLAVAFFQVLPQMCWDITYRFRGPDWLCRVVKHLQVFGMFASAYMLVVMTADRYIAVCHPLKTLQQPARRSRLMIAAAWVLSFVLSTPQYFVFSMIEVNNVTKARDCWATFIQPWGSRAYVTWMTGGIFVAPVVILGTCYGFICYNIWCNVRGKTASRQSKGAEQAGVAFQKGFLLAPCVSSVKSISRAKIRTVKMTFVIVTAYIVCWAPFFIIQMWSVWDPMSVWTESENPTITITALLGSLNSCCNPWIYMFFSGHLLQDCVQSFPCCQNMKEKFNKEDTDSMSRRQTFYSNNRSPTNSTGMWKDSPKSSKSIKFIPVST
Sequence of human V1a receptors (P37288 whole entry): as above

For orientation: IC50 means the concentration that inhibits the measured activity by half. Read a low IC50 as inhibition by little substance. A word on the melting point: it is the temperature, or range, at which the solid turns liquid. On to `COc1cc2c(cc1Cl)C(CCCN1CCNCC1)(c1ccccc1F)C(=O)N2S(=O)(=O)c1ccc(OC(C)C)cc1.Cl` (single isomer, unassigned) [Compound No. 17, 5-Chloro-3-(2-fluorophenyl)-1-[(4-isopropoxyphenyl)sulfonyl]-6-methoxy-3-[3-(piperazin-1-yl)propyl]-1,3-dihydroindol-2-one hydrochloride], for which the melting point was 232 °C. Further, the IC50 in data set [1] was 2.4 nM. In data set [2], this compound returned a half-maximal inhibitory concentration (IC50) greater than 1000 nM. Besides, the IC50 in data set [3] was determined as 450 nM. The compound further displayed a 50% inhibitory concentration (IC50) in data set [4] of 390 nM. Further, the “agonist or antagonist nature at V1a receptors” value in data set [5] is given as “antagonists of V1a receptors”.
Turning to `COc1cc2c(cc1Cl)C(CCCN1CCN(C)CC1)(c1ccccc1F)C(=O)N2S(=O)(=O)c1ccc(OC(C)C)cc1.Cl` (stereo not shown) [Compound No. 13, 5-Chloro-3-(2-fluorophenyl)-1-[(4-isopropoxyphenyl)sulfonyl]-6-methoxy-3-[3-(4-methylpiperazin-1-yl)propyl]-1,3-dihydroindol-2-one hydrochloride], the melting point is 205 °C. Moreover, in data set [5], the “agonist or antagonist nature at V1a receptors” value is on record as “antagonists of V1a receptors”.
Take `COc1cccc(S(=O)(=O)N2C(=O)C(CCCN3CCN(C)CC3)(c3ccccc3F)c3cc(Cl)c(OC)cc32)c1` (stereo not shown) [Compound No. 38]: the IC50 is 1.1 nM in data set [1], greater than 1000 nM in data set [2], greater than 1000 nM in data set [3] and 500 nM in data set [4].
For the compound `COc1cc2c(cc1Cl)C(CCCN1CCNCC1)(c1ccccc1F)C(=O)N2S(=O)(=O)c1ccc(O)cc1` (stereo not shown) [Compound No. 46], the half-inhibitory concentration (IC50) in data set [1] was 2.4 nM; in data set [2] it was 640 nM; in data set [3], greater than 1000 nM; in data set [4], 380 nM.
For `CCN(CC)C(=O)Nc1ccc(S(=O)(=O)N2C(=O)C(NCCC3CCNCC3)(c3ccccc3Cl)c3cc(Cl)c(Cl)cc32)cc1` (stereo not drawn) [Compound α, 3-[4-[[5,6-dichloro-3-(2-chlorophenyl)-2-oxo-3-[(2-(piperidin-4-yl)ethyl)amino]-2,3-dihydro-1H-indol-1-yl]sulfonyl]phenyl]-1,1-diethylurea, reference compound], in data set [1], the “affinity for human AVP V1a receptors” value is “good affinity”; the “selectivity for human AVP V1a receptors and for human AVP V1b receptors” value is on record as “not selective”. Moreover, the “affinity for human AVP V2 receptors” value in data set [3] is on record as “good affinity”. In addition, the “affinity for oxytocin receptors” value in data set [4] is listed as “good affinity”.
For `CCN(CC)C(=O)Nc1ccc(S(=O)(=O)N2C(=O)C(NCCC3CCNCC3)(c3ccccc3Cl)c3cc(Cl)c(C)cc32)cc1` (stereo not drawn) [Compound β, 3-[4-[[5-chloro-3-(2-chlorophenyl)-6-methyl-2-oxo-3-[(2-(piperidin-4-yl)ethyl)amino]-2,3-dihydro-1H-indol-1-yl]sulfonyl]phenyl]-1,1-diethylurea, reference compound], in data set [1], the “affinity for human AVP V1a receptors” value was “good affinity”; the “selectivity for human AVP V1a receptors and for human AVP V1b receptors” value was “not selective”. Also, the “affinity for human AVP V2 receptors” value in data set [3] is “good affinity”.
Take `COc1ccc(S(=O)(=O)N2C(=O)C(CCCN3CCNCC3)(c3ccccc3F)c3cc(F)c(OC)cc32)cc1C` (stereo not shown) [compound 107]: the IC50 in data set [1] is 8.5 nM; in data set [2], 140 nM; in data set [3] it was greater than 1000 nM; in data set [4] it was greater than 1000 nM.
On to `COc1ccc(S(=O)(=O)N2C(=O)C(CCCN3CCNCC3)(c3ccccc3F)c3cc(OC)c(OC)cc32)cc1C` (stereo not shown) [compound 108], for which the IC50 was 5 nM in data set [1], 320 nM in data set [2], greater than 1000 nM in data set [3] and greater than 1000 nM in data set [4].
